Test system: HBV rcDNA in HepDE19 cells
Assay: HepDE19 assay with bDNA quantitation of HBV rcDNA
Assay type: cell-based, hepatitis B virus
Conditions: Hepatitis B virus, HepDE19, HepDE19 assay, inhibition of rcDNA formation, bDNA quantitation; read-out: DE-19bDNA EC50

| Structure (SMILES) | EC50 [nM] |
| --- | --- |
| COc1ccc2cc(C(=O)N(C)[C@@H]3COCc4[nH]c(=O)c5cc(F)c(F)cc5c43)[nH]c2c1 [Compound 364, (S)-N-(8,9-Difluoro-6-oxo-1,4,5,6-tetrahydro-2H-pyrano[3,4-c]isoquinolin-1-yl)-6-methoxy-N-methyl-1H-indole-2-carboxamide] | 30 |
| CN(C(=O)c1cnc(C(F)(F)F)c(Br)c1)[C@@H]1COCc2[nH]c(=O)c3cc(F)c(F)cc3c21 [Compound 365, (S)-5-Bromo-N-(8,9-difluoro-6-oxo-1,4,5,6-tetrahydro-2H-pyrano[3,4-c]isoquinolin-1-yl)-N-methyl-6-(trifluoromethyl)nicotinamide] | 60 |
| CN(C(=O)c1ccc2ccc(Cl)n2c1)[C@@H]1COCc2[nH]c(=O)c3cc(F)c(F)cc3c21 [Compound 366, (S)-3-Chloro-N-(8,9-difluoro-6-oxo-1,4,5,6-tetrahydro-2H-pyrano[3,4-c]isoquinolin-1-yl)-N-methylindolizine-6-carboxamide] | 100 |
| COc1c2ccc(C(=O)N(C)[C@@H]3COCc4[nH]c(=O)c5cc(F)c(F)cc5c43)cc2nn1C(F)F [Compound 367, (S)-N-(8,9-Difluoro-6-oxo-1,4,5,6-tetrahydro-2H-pyrano[3,4-c]isoquinolin-1-yl)-2-(difluoromethyl)-3-methoxy-N-methyl-2H-indazole-6-carboxamide] | 4600 |
| COc1c2cc(C(=O)N(C)[C@@H]3COCc4[nH]c(=O)c5cc(F)c(F)cc5c43)ccc2nn1C(F)F [Compound 368, (S)-N-(8,9-Difluoro-6-oxo-1,4,5,6-tetrahydro-2H-pyrano[3,4-c]isoquinolin-1-yl)-2-(difluoromethyl)-3-methoxy-N-methyl-2H-indazole-5-carboxamide] | 3400 |
| COc1n[nH]c2ccc(C(=O)N(C)[C@@H]3COCc4[nH]c(=O)c5cc(F)c(F)cc5c43)cc12 [Compound 369, (S)-N-(8,9-Difluoro-6-oxo-1,4,5,6-tetrahydro-2H-pyrano[3,4-c]isoquinolin-1-yl)-3-methoxy-N-methyl-1H-indazole-5-carboxamide] | 6100 |
| CN(C(=O)C1CN(c2csc(Cl)c2)C1)[C@@H]1COCc2[nH]c(=O)c3cc(F)c(F)cc3c21 [Compound 370, (S)-1-(5-Chlorothiophen-3-yl)-N-(8,9-difluoro-6-oxo-1,4,5,6-tetrahydro-2H-pyrano[3,4-c]isoquinolin-1-yl)-N-methylazetidine-3-carboxamide] | 490 |
| CN(C(=O)c1cc2ccnc(Cl)c2[nH]1)[C@@H]1COCc2[nH]c(=O)c3cc(F)c(F)cc3c21 [Compound 371, (S)-7-Chloro-N-(8,9-difluoro-6-oxo-1,4,5,6-tetrahydro-2H-pyrano[3,4-c]isoquinolin-1-yl)-N-methyl-1H-pyrrolo[2,3-c]pyridine-2-carboxamide] | 140 |
| CN(C(=O)c1cc2c(Cl)nccc2[nH]1)[C@@H]1COCc2[nH]c(=O)c3cc(F)c(F)cc3c21 [Compound 372, (S)-4-Chloro-N-(8,9-difluoro-6-oxo-1,4,5,6-tetrahydro-2H-pyrano[3,4-c]isoquinolin-1-yl)-N-methyl-1H-pyrrolo[3,2-c]pyridine-2-carboxamide] | 20 |
| CN(C(=O)c1ccn2c(Cl)ccc2c1)[C@@H]1COCc2[nH]c(=O)c3cc(F)c(F)cc3c21 [Compound 373, (S)-3-Chloro-N-(8,9-difluoro-6-oxo-1,4,5,6-tetrahydro-2H-pyrano[3,4-c]isoquinolin-1-yl)-N-methylindolizine-7-carboxamide] | 10 |
| CN(C(=O)c1cc2cc(C(F)F)ccn2c1)[C@@H]1COCc2[nH]c(=O)c3cc(F)c(F)cc3c21 [Compound 374, (S)-N-(8,9-Difluoro-6-oxo-1,4,5,6-tetrahydro-2H-pyrano[3,4-c]isoquinolin-1-yl)-7-(difluoromethyl)-N-methylindolizine-2-carboxamide] | 24000 |
| CN(C(=O)c1cc2ccc(C(F)F)cn2c1)[C@@H]1COCc2[nH]c(=O)c3cc(F)c(F)cc3c21 [Compound 375, (S)-N-(8,9-Difluoro-6-oxo-1,4,5,6-tetrahydro-2H-pyrano[3,4-c]isoquinolin-1-yl)-6-(difluoromethyl)-N-methylindolizine-2-carboxamide] | 330 |
| CN(C(=O)c1cc2cc(F)c(F)cc2n1COP(=O)(OC(C)(C)C)OC(C)(C)C)[C@@H]1COCc2[nH]c(=O)c3cc(F)c(F)cc3c21 [Compound 376, (S)-di-tert-Butyl ((2-((8,9-difluoro-6-oxo-1,4,5,6-tetrahydro-2H-pyrano[3,4-c]isoquinolin-1-yl)(methyl)carbamoyl)-5,6-difluoro-1H-indol-1-yl)methyl)phosphate] | 10 |
| CN(C(=O)c1cnc(C(F)(F)F)c(Cl)c1)[C@@H]1COCc2[nH]c(=O)c3cc(F)c(F)cc3c21 [Compound 377, (S)-5-Chloro-N-(8,9-difluoro-6-oxo-1,4,5,6-tetrahydro-2H-pyrano[3,4-c]isoquinolin-1-yl)-N-methyl-6-(trifluoromethyl)nicotinamide] | 40 |
| CN(C(=O)c1cc2c(Br)c(Cl)ncc2[nH]1)[C@@H]1COCc2[nH]c(=O)c3cc(F)c(F)cc3c21 [Compound 384, (S)-4-Bromo-5-chloro-N-(8,9-difluoro-6-oxo-1,4,5,6-tetrahydro-2H-pyrano[3,4-c]isoquinolin-1-yl)-N-methyl-1H-pyrrolo[2,3-c]pyridine-2-carboxamide] | 20 |
| CN(C(=O)c1cc2c(C(F)F)cccn2c1)[C@@H]1COCc2[nH]c(=O)c3cc(F)c(F)cc3c21 [Compound 407, (S)-N-(8,9-difluoro-6-oxo-1,4,5,6-tetrahydro-2H-pyrano[3,4-c]isoquinolin-1-yl)-8-(difluoromethyl)-N-methylindolizine-2-carboxamide] | 10 |
| CN(C(=O)c1ccc2c(c1)CCC2)[C@@H]1COCc2[nH]c(=O)c3cc(F)c(F)cc3c21 [Compound 408, (S)-N-(8,9-Difluoro-6-oxo-1,4,5,6-tetrahydro-2H-pyrano[3,4-c]isoquinolin-1-yl)-N-methyl-2,3-dihydro-1H-indene-5-carboxamide] | 40 |
| CN(C(=O)c1ccc2ncoc2c1)[C@@H]1COCc2[nH]c(=O)c3cc(F)c(F)cc3c21 [Compound 409, (S)-N-(8,9-Difluoro-6-oxo-1,4,5,6-tetrahydro-2H-pyrano[3,4-c]isoquinolin-1-yl)-N-methylbenzo[d]oxazole-6-carboxamide] | 2300 |
| CN(C(=O)c1cc2c(Cl)nc(Cl)cc2[nH]1)[C@@H]1COCc2[nH]c(=O)c3cc(F)c(F)cc3c21 [Compound 410, (S)-4,6-Dichloro-N-(8,9-difluoro-6-oxo-1,4,5,6-tetrahydro-2H-pyrano[3,4-c]isoquinolin-1-yl)-N-methyl-1H-pyrrolo[3,2-c]pyridine-2-carboxamide] | 40 |
| CN(C(=O)c1cc2cc(F)c(F)cc2[nH]1)[C@@H]1COC(F)c2[nH]c(=O)c3cc(F)c(F)cc3c21 (stereo partly drawn) [Compound 411, 5,6-Difluoro-N-methyl-N-((1S)-4,8,9-trifluoro-6-oxo-1,4,5,6-tetrahydro-2H-pyrano[3,4-c]isoquinolin-1-yl)-1H-indole-2-carboxamide] | 10 |
| CN(C(=O)c1cnc(C(F)(F)F)c(F)c1)[C@@H]1COCc2[nH]c(=O)c3cc(F)c(F)cc3c21 [Compound 412, (S)-N-(8,9-Difluoro-6-oxo-1,4,5,6-tetrahydro-2H-pyrano[3,4-c]isoquinolin-1-yl)-5-fluoro-N-methyl-6-(trifluoromethyl)nicotinamide] | 30 |
| CN(C(=O)c1ccc2c(c1)c(Cl)nn2C)[C@@H]1COCc2[nH]c(=O)c3cc(F)c(F)cc3c21 [Compound 415, (S)-3-Chloro-N-(8,9-difluoro-6-oxo-1,4,5,6-tetrahydro-2H-pyrano[3,4-c]isoquinolin-1-yl)-N,1-dimethyl-1H-indazole-5-carboxamide] | 60 |
| CCn1nc(Cl)c2cc(C(=O)N(C)[C@@H]3COCc4[nH]c(=O)c5cc(F)c(F)cc5c43)ccc21 [Compound 416, (S)-3-Chloro-N-(8,9-difluoro-6-oxo-1,4,5,6-tetrahydro-2H-pyrano[3,4-c]isoquinolin-1-yl)-1-ethyl-N-methyl-1H-indazole-5-carboxamide] | 80 |
| Cc1nn(C(F)F)c2ccc(C(=O)N(C)[C@@H]3COCc4[nH]c(=O)c5cc(F)c(F)cc5c43)cc12 [Compound 417, (S)-N-(8,9-Difluoro-6-oxo-1,4,5,6-tetrahydro-2H-pyrano[3,4-c]isoquinolin-1-yl)-1-(difluoromethyl)-N,3-dimethyl-1H-indazole-5-carboxamide] | 20 |
| CN(C(=O)c1ccc2ocnc2c1)[C@@H]1COCc2[nH]c(=O)c3cc(F)c(F)cc3c21 [Compound 426, (S)-N-(8,9-Difluoro-6-oxo-1,4,5,6-tetrahydro-2H-pyrano[3,4-c]isoquinolin-1-yl)-N-methylbenzo[d]oxazole-5-carboxamide] | 90 |
| CN(C(=O)c1ccc2scnc2c1)[C@@H]1COCc2[nH]c(=O)c3cc(F)c(F)cc3c21 [Compound 427, (S)-N-(8,9-Difluoro-6-oxo-1,4,5,6-tetrahydro-2H-pyrano[3,4-c]isoquinolin-1-yl)-N-methylbenzo[d]thiazole-5-carboxamide] | 170 |
| CN(C(=O)c1ccc2ncsc2c1)[C@@H]1COCc2[nH]c(=O)c3cc(F)c(F)cc3c21 [Compound 428, (S)-N-(8,9-Difluoro-6-oxo-1,4,5,6-tetrahydro-2H-pyrano[3,4-c]isoquinolin-1-yl)-N-methylbenzo[d]thiazole-6-carboxamide] | 340 |
| CN(C(=O)c1ccc2[nH]ncc2c1)[C@@H]1COCc2[nH]c(=O)c3cc(F)c(F)cc3c21 [Compound 429, (S)-N-(8,9-Difluoro-6-oxo-1,4,5,6-tetrahydro-2H-pyrano[3,4-c]isoquinolin-1-yl)-N-methyl-1H-indazole-5-carboxamide] | 980 |
| CN(C(=O)c1ccc2c(c1)c(C(F)F)nn2C)[C@@H]1COCc2[nH]c(=O)c3cc(F)c(F)cc3c21 [Compound 436, (S)-N-(8,9-Difluoro-6-oxo-1,4,5,6-tetrahydro-2H-pyrano[3,4-c]isoquinolin-1-yl)-3-(difluoromethyl)-N,1-dimethyl-1H-indazole-5-carboxamide] | 100 |

From patent US20240228504A1, “SUBSTITUTED TRICYCLIC AMIDES, ANALOGUES THEREOF, AND METHODS USING SAME” (Arbutus Biopharma Corporation, priority 2020, published 2024)
